{"source": "patent US20090076050A1", "about": "“SYNERGISTIC TUMOR-KILLING EFFECT OF RADIATION AND BERBERINE COMBINED TREATMENT IN LUNG CANCER” (CHUNG SHAN MEDICAL U., priority 2007, published 2009)", "key": {"[1]": {"tested_on": "LLC cells", "assay": "MTT cell viability, berberine combined with IR, LLC cells", "format": "cell-based", "conditions": "LLC cells (data not shown)", "from_the_text": "The data were depicted in FIG. 1C after normalization."}, "[2]": {"tested_on": "A549 cells", "assay": "electron microscopic analysis of autophagy", "format": "cell-based, human", "conditions": "IR and 5.0 μM berberine, 24 h", "procedure": "Autophagic cell death has been recognized as programmed cell death type II, it has been detected in a variety of cancer cells treated with radiation or chemotherapy. Therefore, it had been examined whether IR treatment combined with berberine induced autophagic cell death in A549 cells by electron microscopic analysis (FIG. 4A). Cells were harvested by trypsinization, and fixed with 2% glutaraldehyde, 4% paraformaldehyde and 1% tannic acid in 0.1 mol/L cacodylate buffer, pH 7.4, for 25 h. The cells were stained with an osmium-thiocarbohydrazide-osmium (OTO). After staining, the cells were dehydrated in a graded series of 70% to 100% EtOH and then immersed serially with 1:1 hexamethyldisilazane and absolute ethanol. […] Autophagy is characterized by the development of AVOs, which is measured by vital staining of acridine orange. […] To quantitate acidic vesicular organelles, Stained cells were collected for the FACScan (Becton Dickinson, San Jose, Calif.) using CellQuest software (Becton Dickinson). Acridine orange-positive cells with bright red fluorescence were detected among A549 cells 24 h after co-treated with berberine and IR (6 Gy), whereas they were sparse among non-treated cells or irradiated cells (FIG. 4B). […]"}, "[3]": {"tested_on": "A549 cells", "assay": "acridine orange staining of acidic vesicular organelles (microscopy and FACS)", "format": "cell-based, human", "conditions": "for proportion of acridine orange-positive cells: 24 h, IR alone 12.5%", "procedure": "Autophagic cell death has been recognized as programmed cell death type II, it has been detected in a variety of cancer cells treated with radiation or chemotherapy. Therefore, it had been examined whether IR treatment combined with berberine induced autophagic cell death in A549 cells by electron microscopic analysis (FIG. 4A). Cells were harvested by trypsinization, and fixed with 2% glutaraldehyde, 4% paraformaldehyde and 1% tannic acid in 0.1 mol/L cacodylate buffer, pH 7.4, for 25 h. The cells were stained with an osmium-thiocarbohydrazide-osmium (OTO). After staining, the cells were dehydrated in a graded series of 70% to 100% EtOH and then immersed serially with 1:1 hexamethyldisilazane and absolute ethanol. One micrometer thin sections were cut, and the gels were coated with 500 Å of gold in a JEOL Vacuum sputter coater and viewed in a JEOL […] electron microscope with scanning attachment (JEOL, Tokyo, Japan). […] Autophagy is characterized by the development of AVOs, which is measured by vital staining of acridine orange. Acridine orange (Polysciences, Warrington, Pa.) was added to cells at a final concentration of 1 μg/mL for a period of 15 min. Pictures were taken with a fluorescent microscope (Nikon TE-300) equipped with a 490-nm band-pass blue excitation filters, a 500-nm dichroic mirror, and a 515-nm-long pass-barrier filter. To quantitate acidic vesicular organelles, Stained cells were collected for the FACScan (Becton Dickinson, San Jose, Calif.) using CellQuest software (Becton Dickinson). Acridine orange-positive cells with bright red fluorescence were detected among A549 cells 24 h after co-treated with berberine and IR (6 Gy), whereas they were sparse among non-treated cells or irradiated cells (FIG. 4B). […] FIG. 4C)."}, "[4]": {"tested_on": "LC3-II in A549 cells", "assay": "immunoblotting for LC3-I, LC3-II", "format": "cell-based, human", "conditions": "24 h after IR combined with increasing concentrations of berberine", "procedure": "The role of apoptosis in the sensitivity of A549 cells to IR induced by berberine was further clarified by DAPI stain. DNA extraction and electrophoresis on agarose gel were carried out as described previously (Solary E, et al. Therapie 2001; 56:511-18). After the indicated treatments, cells were fixed with 3 mL of 4% paraformaldehyde. To stain the cells, 500 μL of a 0.5 μg/mL chilled solution of DAPI (Invitrogen) stain was added and allowed to sit for 5 min. The cells were then rinsed with PBS solution and counted under a fluorescent microscope. For positive control of DNA fragmentation and DAPI stain, A549 cells were treated with 30 μM etoposide for 24 h. […] This contention was further confirmed by the lack of apoptotic DNA fragmentation and activation of caspase-3 and poly-(ADP-ribose) polymerases (PARP) as analyzed by DNA electrophoresis and immunoblotting (FIG. 3B, 3C). After the indicated treatment, the resultant supernatants were separated in 12%˜18% polyacrylamide gels. The blot was incubated with a polyclonal antibody against LC3 (gift from T. Yoshimori), PARP, caspase-3, bcl-2, beclin-1 and β-actin (Santa Cruz biotechnology, USA) for 2 h, and then with an appropriate peroxidase-conjugated secondary antibody (Sigma) for 1 h at 37° C. […] LC3 is localized in autophagosome membranes during amino acid starvation-induced autophagy (Mizushima N, et al. J Cell Biol 2001; 152:657-68.). […]"}, "[5]": {"tested_on": "beclin-1", "assay": "immunohistochemistry of beclin-1 in xenograft", "format": "in vivo, C57BL/6 mice", "conditions": "co-treatment groups (berberine + IR)", "procedure": "The application of the additive cytotoxicity of IR combined with berberine in cancer treatment was further evidenced in an in vivo Lewis lung carcinoma (LLC) model in mice (Camphausen K, et al. Cancer Res 2001; 61:2207-11). Male C57BL/6 mice aged 4-6 weeks (National Taiwan University Animal Center, Taiwan) were used. To form a tumor xenograft, Lewis lung cells (2×10^6) were injected s.c. into the right hind limb. Animals were randomized into six groups: control, irradiation (IR) alone, berberine (1.0, 2.0 mg/kg) alone, and IR combined with berberine (1.0, 2.0 mg/kg). For tumor irradiation, mice were immobilized in a customized harness that exposed the right hind leg while shielding the remainder of the body by 3.5 cm of lead. Mice were exposed to a single dose of 8 Gy. […] To obtain tumor growth curves, three orthogonal tumor diameters were measured every 4-day intervals with a vernier caliper, and the mean values were calculated. […] Primary tumor growth delay was measured by calipers in two dimensions, and the volumes were calculated according to the formula: tumor volume=(width) 2×length×0.52. […] The tumor volume at the primary site of each group was measured before treatment, and the average tumor volume was designated as T0. When the animals were sacrificed at the end of experiment, the xenografts were removed, and the tumor volume was determined and presented as fold of T0. […]"}}, "data": [{"molecule": "COc1ccc2cc3[n+](cc2c1OC)CCc1cc2c(cc1-3)OCO2", "note": "[berberine, Berberine]", "values": [{"measurement": "dose and time dependent synergic-killing effect", "setting": "[1]", "result": "also observed"}, {"measurement": "autophagic vacuoles by electron microscopy", "setting": "[2]", "result": "Numerous empty vacuoles and autophagic vacuoles"}, {"measurement": "proportion of acridine orange-positive cells", "setting": "[3]; 6 Gy irradiation combined with 5.0 μM berberine", "result": 50.3, "unit": "%"}, {"measurement": "proportion of acridine orange-positive cells", "setting": "[3]; 6 Gy irradiation combined with 10 μM berberine", "result": 62.6, "unit": "%"}, {"measurement": "acridine orange-positive cells with bright red fluorescence (microscopy)", "setting": "[3]; 24 h after co-treatment with berberine and IR (6 Gy)", "result": "detected"}, {"measurement": "expression of LC3-II", "setting": "[4]", "result": "increased dose-dependently"}, {"measurement": "beclin-1 protein expression in xenograft", "setting": "[5]", "result": "remarkable increased"}]}]}
